In brackets after ≈: the same amount, converted by molar mass.

The conditions of this data set: buffer; pH 7.4; 200.0 µM.
On to `O=C(CCNC(=O)c1ccco1)Nc1cccc(C(F)(F)F)c1`, for which the solubility (kinetic) was over 48.9 µg/mL.

For `CC(Oc1ccc(Cl)cc1Cl)/C(N)=N/O` (stereo unspecified), the kinetic solubility worked out at 30.2 µg/mL (≈ 121 µM).

Turning to `COC(=O)CSc1nc(C)c2c(n1)CCCC2`, the solubility (kinetic) came out at 37.6 µg/mL (≈ 149 µM).

`CC1CCCC1/C(=N/O)c1ccccc1` (stereo unspecified) returned a kinetic solubility of 16.9 µg/mL (≈ 83.1 µM).

On to `CCOC(=O)c1ccc(CN2Cc3ccccc3C2=O)cc1`, for which the kinetic solubility was over 44.3 µg/mL.

For `NS(=O)(=O)c1ccc(CCNC(=O)c2ccc3c(c2)OCO3)cc1`, the solubility (kinetic) is over 52.3 µg/mL.

The molecule `COc1cc2ccccc2cc1C(=O)Nc1ccccc1Cl` yielded a solubility (kinetic) of under 0.7 µg/mL.

The molecule `N/C(=N\OC(=O)c1cccc(F)c1)c1cccc([N+](=O)[O-])c1` displayed a solubility (kinetic) of 1.3 µg/mL (≈ 4.29 µM).

Molecule `O=C(Nc1cccc(Cl)c1)c1cc(F)cc2c1OCOC2` came in with a solubility (kinetic) of under 0.7 µg/mL.

Regarding `CC1=Nc2ccc(C)cc2/C1=C/c1c(N)n2oc(C)cc2nc1=O`, the solubility (kinetic) is 0.6 µg/mL (≈ 1.87 µM).

`CC(C)(C)N=C1C([N+](=O)[O-])=CC=C2C1=NC1(CCCCC1)N2O`: the solubility (kinetic) was found to be 45.3 µg/mL (≈ 142 µM).

Turning to `O=C(Nc1cccnc1Cl)c1cccs1`, the solubility (kinetic) was over 35.8 µg/mL.

In the case of `COc1cccc(S(=O)(=O)c2nc(C)c3c(n2)CCC3)c1`, the solubility (kinetic) is over 45.7 µg/mL.

As for `CSc1ncccc1C(=O)Nc1ccncc1`, the solubility (kinetic) was determined as 34.6 µg/mL (≈ 141 µM).

Regarding `CCc1ccccc1NC(=O)COC(=O)c1c(C)nsc1NC`, the kinetic solubility amounted to 1.9 µg/mL (≈ 5.7 µM).

The molecule `COc1ccccc1NC(=O)CCNC(=O)c1ccc(C)cc1` yielded a kinetic solubility of over 46.9 µg/mL.

For the molecule `O=C(NCc1ccco1)c1ccc(-c2ccc(Cl)cc2)o1`, the kinetic solubility amounted to 1.2 µg/mL (≈ 3.98 µM).

In turn, `Cc1cccc(N(CC(=O)N2CCCCCC2)S(C)(=O)=O)c1` returned a kinetic solubility of over 48.7 µg/mL.

For `CSc1sc(C(=O)N(C)C)cc1S(=O)(=O)C(C)C`, the solubility (kinetic) is over 46.1 µg/mL.

`O=C(O)Cc1ccc(S(=O)(=O)N2CCCC2)s1` displayed a kinetic solubility of over 41.3 µg/mL.

Take `O=C(COC(=O)Cn1cnc2ccccc21)Nc1ccc(OC(F)F)cc1`: the solubility (kinetic) was over 56.3 µg/mL.

For `COCCCNC(=S)N/N=C/c1ccc(O)cc1`, the solubility (kinetic) was over 40.1 µg/mL.

For the molecule `CCOC(=O)C1(CCOC)CCN(C(=O)c2sccc2C)CC1`, the solubility (kinetic) was over 50.9 µg/mL.

The molecule `CC1CCCCN1C(=O)C1COc2ccccc2O1` (stereo unspecified) yielded a solubility (kinetic) of 35.5 µg/mL (≈ 136 µM).

`CC(=O)Nc1ccc(NC(=S)NC(=O)c2ccc(-c3ccccc3)cc2)cc1` displayed a kinetic solubility of 0.9 µg/mL (≈ 2.31 µM).

`Cc1ccc(NS(=O)(=O)c2c(F)cc(F)c(Cl)c2F)cc1S(=O)(=O)N1CCOCC1`: the kinetic solubility is over 72.7 µg/mL.

In the case of `CCOC(=O)c1cnc(-c2ccc(C(F)(F)F)cn2)[nH]c1=O`, the kinetic solubility was 46.8 µg/mL (≈ 149 µM).

Molecule `CSc1ccc(CNC(=O)c2c(C)noc2C)s1` came in with a solubility (kinetic) of 39.8 µg/mL (≈ 141 µM).

Consider `COc1cc(NC(=S)N2CCCCC2C)c(OC)cc1Cl` (stereo unspecified), for which the solubility (kinetic) is 44.7 µg/mL (≈ 136 µM).

Molecule `O=C(COC(=O)c1ccc(O)cc1)Nc1ccccc1` gave a solubility (kinetic) of over 40.7 µg/mL.

`CCCNC(=O)CSc1nccn1Cc1ccc(OC)cc1` registered a solubility (kinetic) of over 47.9 µg/mL.

The molecule `CN(CC(=O)Nc1cccc([N+](=O)[O-])c1)S(=O)(=O)c1ccccc1` yielded a kinetic solubility of over 52.4 µg/mL.

For `CCOc1ccc(OCCCC(=O)N2CCN(S(=O)(=O)c3ccccc3C#N)CC2)cc1`, the solubility (kinetic) is 27.2 µg/mL (≈ 59.4 µM).

The molecule `CC(C)c1cccc(C(C)C)c1NC(=S)Nc1cccc(Cl)c1` came in with a solubility (kinetic) of under 0.4 µg/mL.

`Cc1ccc(-c2csc(NC3OC(=O)c4ccccc43)n2)cc1` (stereo unspecified) had a solubility (kinetic) of 0.4 µg/mL (≈ 1.24 µM).

Consider `Cc1cccc(NC(=O)C2Cc3ccccc3O/C2=N\O)c1` (stereo unspecified), for which the solubility (kinetic) is 1.2 µg/mL (≈ 4.05 µM). Against the preceding molecule, the solubility kinetic is about 3-fold higher.

The molecule `COc1ccc(CCNC(=O)CCc2nc3ccccc3[nH]2)cc1OC` gave a solubility (kinetic) of over 53 µg/mL.

The molecule `CCOC(=O)N1CCN(CCC(=O)Nc2cc(C)ccc2C)CC1` had a solubility (kinetic) of over 50 µg/mL.

Regarding `O=C(/C=C/c1ccc(Cl)cc1)NCCCN1CCOCC1`, the solubility (kinetic) was over 46.3 µg/mL.

On to `CCN1C(=O)c2cccc3c(S(=O)(=O)Nc4ccccc4O)ccc1c23`, for which the solubility (kinetic) is 0.5 µg/mL (≈ 1.36 µM).

The molecule `Cc1ccc(CNc2ccc3c(c2)ncn3C(C)C)cc1` yielded a kinetic solubility of over 41.9 µg/mL.

For orientation: kinetic solubility means solubility judged after dilution from a stock solution rather than from solid.

The record behind these values is PubChem BioAssay AID1996.
